We go through 1 compound from patent US10280183B2, “Therapeutic agent for treating tumors” (THE RESEARCH FOUNDATION FOR THE STATE UNIVERSITY OF NEW YORK, priority 2014, dated 2019).

Read-outs that look alike come from different tables or passages of the source.

What all share (type): cell-based
The subject of assay [1] is L1210FR murine lymphocytic leukemia cell line (BR+). Nature of the assay: In vitro cytotoxicity, standard MTT assay, L1210FR cells. The following applies: 24 hour incubation; read-out: IC50, L1210 FR (leuk.). Background: Tetrazolium dyes change colour on reduction, which living cells bring about.
The subject of assay [2] is MX-1 human breast carcinoma cell line (BR+). Nature of the assay: In vitro cytotoxicity, standard MTT assay, MX-1 cells. The following applies: read-out: IC50, MX-1 (breast). The procedure:
(§1) Cell Culture. All cell lines were obtained from ATCC unless otherwise noted. Cells were cultured in RPMI-1640 cell culture medium (Gibco) or DMEM (Gibco), both supplemented with 5% (v/v) heat-inactivated fetal bovine serum (FBS), 5% (v/v) NuSerum, and 1% (v/v) penicillin and streptomycin (PenStrep) at 37° C. in a humidified atmosphere with 5% CO2. MX-1 and ID8 (obtained from University of Kansas Medical Center) cells were cultured as monolayers on 100 mm tissue culture dishes in supplemented RPMI-1640. L1210 and L1210FR (a gift from Dr. Gregory Russell-Jones, Access Pharmaceuticals Pty Ltd., Australia) were grown as a suspension in supplemented RPMI-1640, and WI-38 as a monolayer in supplemented DMEM. Cells were harvested, collected by centrifugation at 850 rpm for 5 min, and resuspended in fresh culture medium. Cell cultures were routinely divided by treatment with trypsin (TrypLE, Gibco) as needed every 2-4 days and collected by centrifugation at 850 rpm for 5 min, and resuspended in fresh cell culture medium, containing varying cell densities for subsequent biological experiments and analysis.
(§2) In Vitro Cytotoxicity Assays. […] Cells were harvested, collected, and resuspended in 100 μL cell culture medium at concentrations ranging from 0.5-1.5×10^4 cells per well in a 96-well plate. For adhesive cell types, cells were allowed to descend to the bottom of the wells overnight, and fresh medium was added to each well upon removal of the old medium.
(§3) For the MTT assay (Table 1 and the Assay 1 in Table 2) of paclitaxel, taxoid 3 and conjugates 1 and 15, cells were resuspended in 200 μL medium with 8,000 to 10,000 cells per well of a 96-well plate and incubated at 37° C. for 24 h before drug treatment. In DMSO stock solutions, each drug or conjugate was diluted to a series of concentrations in cell culture medium to prepare test solutions. After removing the old medium, these test solutions were added to the wells in the 96-well plate to give the final concentrations ranging from 0.5 to 5,000 nM (100 μL), and the cells were subsequently cultured at 37° C. for 48 h (Table 1) or 72 h (Table 2, Assay 1). For the leukemia cell lines, L1210 and L1210FR, cells were harvested, collected, and resuspended in the test solutions ranging from 0.5 to 5,000 nM (100 μL) at 0.5 to 0.8 ×10^4 cells per well in a 96-well plate and subsequently incubated at 37° C. for 48 h (Table 1) or 72 h (Table 2, Assay 1).
(§4) In the Assay 2 (Table 2), cells were incubated with 1 or 15 at 37° C. for 24 h, and the drug medium was removed. Then, treated cells were thoroughly washed with PBS, and GSH-OEt (6 equiv. to conjugate) in cell culture medium (200 μL) was added to the wells. These cells were incubated at 37° C. for an additional 48 h, i.e., the total incubation time was 72 h.
(§5) In the Assay 3 (Table 2), cells were incubated with 1 or 15 at 37° C. for 24 h, and GSH-OEt (6 equivalents) in cell culture medium (100 μL) was directly added to the wells. These cells were incubated at 37° C. for an additional 48 h, i.e. the total incubation time was also 72 h.
(§6) For all experiments, after removing the test medium, fresh solution of MTT in PBS (40 μL of 0.5 mg MTT/mL) was added to the wells, and the cells were incubated at 37° C. for 3 h. The MTT solution was then removed, and the resulting insoluble violet formazan crystals were dissolved in 0.1 N HCl in isopropanol with 10% Triton X-100 (40 μL) to give a violet solution. The spectrophotometric absorbance measurement of each well in the 96-well plate was run at 570 nm using a Labsystems Multiskan Ascent microplate reader. The IC50 values and their standard errors were calculated from the viability-concentration curve using Four Parameter Logistic Model of Sigmaplot. The concentration of DMSO per well was ≤1% in all cases. Each experiment was run in triplicate.

The test system of assay [3] is WI38 human lung fibroblast cell line (BR−). The assay can be described thus: In vitro cytotoxicity, standard MTT assay, WI38 cells. The settings on record: 24 hour incubation; read-out: IC50, WI38 (normal lung).
A further assay concerns MCF-7 (breast). Nature of the assay: In vitro cytotoxicity, standard MTT assay, MCF-7 cells. The following applies: 72 h drug incubation. Here is the method: as §2
For the MTT assay (Table 1 and the Assay 1 in Table 2) of paclitaxel, taxoid 3 and conjugates 1 and 15, cells were resuspended in 200 μL medium with 8,000 to 10,000 cells per well of a 96-well plate and incubated at 37° C. for 24 h before drug treatment. In DMSO stock solutions, each drug or conjugate was diluted to a series of concentrations in cell culture medium to prepare test solutions. […]
For all experiments, after removing the test medium, fresh solution of MTT in PBS (40 μL of 0.5 mg MTT/mL) was added to the wells, and the cells were incubated at 37° C. for 3 h. […] The spectrophotometric absorbance measurement of each well in the 96-well plate was run at 570 nm using a Labsystems Multiskan Ascent microplate reader. The IC50 values and their standard errors were calculated from the viability-concentration curve using Four Parameter Logistic Model of Sigmaplot. […]

For assay [4], the system named is L1210FR murine lymphocytic leukemia cell line (BR+). Nature of the assay: In vitro cytotoxicity, standard MTT assay, L1210FR cells. The settings on record: 72 h drug incubation; read-out: IC50, L1210FR (leuk.). The procedure:
as §1, §2, §3, §4, §5, §6

Assay [5] deals with L1210 murine lymphocytic leukemia cell line (BR−). The assay can be described thus: In vitro cytotoxicity, standard MTT assay, L1210 cells. The following applies: 72 h drug incubation; read-out: IC50, L1210 (leuk.). The procedure: as §1, §2, §3, §6
Assay [6] relates to WI38 human lung fibroblast cell line (BR−). Nature of the assay: In vitro cytotoxicity, standard MTT assay, WI38 cells. The following applies: 72 h drug incubation; read-out: IC50, WI38 (normal lung). The procedure: as §1, §2, §3, §4, §5, §6
Assay [7] has as its system ID8 murine ovarian carcinoma cell line (BR+). Nature of the assay: In vitro cytotoxicity, standard MTT assay, ID8 cells. The following applies: read-out: IC50, ID8 (ovarian). Here is the method:
as §1, §2
as §3, with “After removing the old medium, these test solutions were added to the wells in the 96-well plate to give the final concentrations ranging from 0.5 to 5,000 nM (100 μL), and the cells were subsequently cultured at 37° C. for 48 h (Table 1) or 72 h (Table 2, Assay 1).” left out
as §6

One may read the IC50 as the concentration needed to halve the response being measured. `CC[C@@]1(OC(=O)Cc2ccccc2SSC(C)CCC(=O)NCCOCCOCCOCCn2cc(CNc3nc(NCCNC(=O)CCC(C)SSc4ccccc4CC(=O)O[C@@H](C(=O)O[C@H]4C[C@@]5(O)[C@@H](OC(=O)c6ccccc6)[C@@H]6[C@]7(OC(C)=O)CO[C@@H]7C[C@H](O)[C@@]6(C)C(=O)[C@H](OC(=O)C6CC6)C(=C4C)C5(C)C)[C@H](C=C(C)C)NC(=O)OC(C)(C)C)nc(NCCOCCOCCOCCNC(=O)CCCC[C@@H]4SC[C@@H]5NC(=O)N[C@@H]54)n3)nn2)C(=O)OCc2c1cc1n(c2=O)Cc2cc3ccccc3nc2-1` (stereo partly shown) [Compound 116]: the half-inhibitory concentration (IC50) in assay [1] was 7.4 nM; in assay [2] (24 hour incubation), 9.8 nM; in assay [2] (72 h drug incubation), 51.7 nM; in assay [3], 705 nM; in the assay on MCF-7 (breast) it was 19 nM; in assay [4], 39.1 nM. The 50% inhibitory concentration (IC50) was 690 nM in assay [5], 742 nM in assay [6], 5.66 nM in assay [7] (24 hour incubation) and 23.4 nM in assay [7] (72 h drug incubation).
